Measurements: patent publication US20240254138A1, “TRICYCLIC PYRIMIDINES AS CYCLIN-DEPENDENT KINASE 7 (CDK7) INHIBITORS” (JANSSEN PHARMACEUTICA NV, priority 2021, published 2024)
Read-outs that look alike come from different tables or passages of the source.

How the values were obtained:
[1] = test system: RNA Polymerase II Serine 5 phosphorylation (Rpb1 CTD, downstream substrate of CDK7) in A549 cells; experiment: Imaging-based cellular RNA PolII Ser5 phosphorylation assay in A549 cells; assay type: cell-based, human; conditions: wild-type CDK7, RNA PolII Ser5 phosphorylation, averaged over all measurements; for IC50: Homo sapiens, A549, A549 cells, read-out: CDK7_A549 Wild-type CDK7 (pIC50) (converted); for CDK7_A549 Wild-type CDK7 (pIC50): A549 cells
Summary of the method: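 A549 cells, seeded 1000/well in DMEM with 1% FBS and cultured 20 h, were treated with compound for 3 h at 37 °C. Ser5-phospho-Rpb1 CTD detected by immunofluorescence imaging after fixation and methanol permeabilization; IC50 from curve fit normalized to DMSO and 10 μM reference-compound controls.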

[2] = test system: RNA Polymerase II Serine 5 phosphorylation in A549 cells overexpressing CDK7-mutant (C312S); experiment: Imaging-based cellular RNA PolII Ser5 phosphorylation assay in A549 cells overexpressing CDK7-mutant (C312S); assay type: cell-based, human; conditions: RNA PolII Ser5 phosphorylation, averaged over all measurements; for IC50: Homo sapiens, A549, A549 cells overexpressing CDK7-mutant (C312S), read-out: CDK7_A549 mutant hCDK7(pIC50) (converted); for CDK7_A549 mutant hCDK7(pIC50): A549 cells overexpressing CDK7-mutant (C312S)
Summary of the method: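 A549 cells overexpressing CDK7 C312S (with endogenous wild-type CDK7) were treated with compound for 3 h at 37 °C in 1% FBS medium. Phospho-Rpb1 CTD Ser5 was immunostained after fixation and imaged. IC50 came from curve fit of % control, normalised to DMSO and 10 μM reference-compound controls.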

[3] = molecular target: CDK7/cyclinH/MAT1 trimeric complex (Homo sapiens, UniProt P50613); experiment: In vitro CDK7 assay, potency of irreversible covalent inhibitors (kinact/KI), coupled PK/LDH ADP readout at 340 nm; conditions: for Ki: CDK7 (20 nM enz.) (KI, μM); for kinact: read-out: CDK7 (20 nM enz.) (kinact, s^−1), 20 nM enzyme
[4] = read-out: CDK7 (20 nM enz.) (kinact/KI, M^−1*s^−1), 20 nM enzyme
[5] = read-out: CDK7 (20 nM enz.) (kobs/[I], M^−1*s^−1), 20 nM enzyme

Sequence of CDK7/cyclinH/MAT1 trimeric complex (P50613 whole entry): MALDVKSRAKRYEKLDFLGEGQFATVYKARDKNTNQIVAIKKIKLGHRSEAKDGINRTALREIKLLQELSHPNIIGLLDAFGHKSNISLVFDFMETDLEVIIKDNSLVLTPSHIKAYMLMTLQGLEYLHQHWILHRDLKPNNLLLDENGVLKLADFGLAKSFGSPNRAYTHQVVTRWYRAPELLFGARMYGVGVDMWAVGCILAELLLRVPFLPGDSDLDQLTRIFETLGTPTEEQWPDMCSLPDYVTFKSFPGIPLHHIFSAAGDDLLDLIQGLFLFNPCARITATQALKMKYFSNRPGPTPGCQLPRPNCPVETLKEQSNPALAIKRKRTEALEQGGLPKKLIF
Sequence of CDK7/cyclinH/MAT1 trimeric complex (P51946 whole entry partner): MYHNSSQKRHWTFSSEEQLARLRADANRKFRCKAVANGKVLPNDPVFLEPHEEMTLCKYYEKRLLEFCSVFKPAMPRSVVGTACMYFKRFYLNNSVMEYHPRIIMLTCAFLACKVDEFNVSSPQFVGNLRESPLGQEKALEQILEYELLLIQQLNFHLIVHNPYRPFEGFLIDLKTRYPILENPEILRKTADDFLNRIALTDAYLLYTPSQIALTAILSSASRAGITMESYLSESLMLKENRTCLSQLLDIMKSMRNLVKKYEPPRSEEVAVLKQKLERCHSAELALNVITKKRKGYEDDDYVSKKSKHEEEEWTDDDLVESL
Sequence of CDK7/cyclinH/MAT1 trimeric complex (P51948 whole entry partner): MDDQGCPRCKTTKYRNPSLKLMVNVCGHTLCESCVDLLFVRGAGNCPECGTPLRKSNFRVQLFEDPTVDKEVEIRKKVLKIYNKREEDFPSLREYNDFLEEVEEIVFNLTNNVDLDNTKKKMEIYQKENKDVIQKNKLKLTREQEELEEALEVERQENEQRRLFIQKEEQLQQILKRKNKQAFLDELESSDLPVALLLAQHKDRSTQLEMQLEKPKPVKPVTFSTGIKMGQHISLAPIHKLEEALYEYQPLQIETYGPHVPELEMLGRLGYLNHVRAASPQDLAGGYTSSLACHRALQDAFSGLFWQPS

SMILES	IC50 [1]	IC50 [2]	Ki ([3]; 20 nM enzyme)	kinact [3]	kinact/KI [3, 4]	kinact/KI [3, 5]	CDK7_A549 Wild-type CDK7 (pIC50) [1]	CDK7_A549 mutant hCDK7(pIC50) [2]	CDK7 (20 nM enz.) (kinact, s^−1) ([3]; 20 nM enzyme)	CDK7 (20 nM enz.) (kinact/KI, M^−1*s^−1) ([3]; 20 nM enzyme)	CDK7 (20 nM enz.) (kobs/[I], M^−1*s^−1) ([3]; 20 nM enzyme)
CC#CC(=O)N1CCC(N2CC(c3cc(C)c4c(c3)Nc3nccc(C5CCOCC5)c3CO4)C2)C1 (stereo not drawn) [Compound 274]	174 nM	> 10000 nM	0.0714 µM	3.45e-05 s⁻¹	483 M⁻¹ s⁻¹						
C=CC(=O)N1CC(N2CCC(c3cc4c(c(-c5ncc[nH]5)c3)OCc3c(N5CCOCC5)ccnc3N4)CC2)C1 [Compound 275]	87.1 nM	> 10000 nM				921 M⁻¹ s⁻¹					
C=CC(=O)N1CC(n2cc(-c3cc(C#N)c4c(c3)Nc3nccc(N5CCOCC5)c3CO4)cn2)C1 [Compound 285]	19.5 nM	1860 nM				964 M⁻¹ s⁻¹					
C=CC(=O)N1CC(N2CCC(c3cc4c(c(C#N)n3)OCc3c(-c5cnn(C)c5)ccnc3N4)CC2)C1 [Compound 298]	263 nM	> 10000 nM	0.0311 µM	8.92e-05 s⁻¹	2870 M⁻¹ s⁻¹						
C=CC(=O)N1CCC(N2CC(c3cc4c(c(C)n3)OCc3c(N5CCOCC5)ccnc3N4)C2)CC1 [Compound 303]	91.2 nM	6170 nM	0.0492 µM	2.35e-05 s⁻¹	477 M⁻¹ s⁻¹						
C=CC(=O)N1CC(N2CCC(c3cc4c(c(C)n3)OCc3c(-c5cnn(C)c5)ccnc3N4)CC2)C1 [Compound 314]			0.0655 µM				7.14	<5	3.945e-05 s⁻¹	602.565 M⁻¹ s⁻¹	
C=CC(=O)N1CC(N2CC(c3cc4c(c(C(F)(F)F)n3)OCc3c(N5CCOCC5)ccnc3N4)C2)C1 [Compound 315]							7.25	5.3			894.649 M⁻¹ s⁻¹
C=CC(=O)N1CCC(N2CC(c3cc4c(c(C)n3)OCc3c(-c5cnn(C)c5)ccnc3N4)C2)CC1 [Compound 316]			0.0898 µM				6.97	5.32	2.255e-05 s⁻¹	251.248 M⁻¹ s⁻¹	
C=CC(=O)N1CC(N2CCC(c3cc4c(c(C#N)n3)OCc3c(C5CCOCC5)ccnc3N4)CC2)C1 [Compound 322]	79.4 nM	9550 nM				740 M⁻¹ s⁻¹					
C=CC(=O)N1CCC(N2CC(c3cc4c(c(C5CC5)n3)OCc3c(N5CCOCC5)ccnc3N4)C2)CC1 [Compound 336]	49 nM	1320 nM	0.0564 µM						1.295e-05 s⁻¹	229.663 M⁻¹ s⁻¹	

The remaining lines, values ahead:

IC50 [1]	IC50 [2]	Ki ([3]; 20 nM enzyme)	kinact [3]	kinact/KI [3, 4]	kinact/KI [3, 5]	CDK7_A549 Wild-type CDK7 (pIC50) [1]	CDK7_A549 mutant hCDK7(pIC50) [2]	CDK7 (20 nM enz.) (kinact, s^−1) ([3]; 20 nM enzyme)	CDK7 (20 nM enz.) (kinact/KI, M^−1*s^−1) ([3]; 20 nM enzyme)	CDK7 (20 nM enz.) (kobs/[I], M^−1*s^−1) ([3]; 20 nM enzyme)	SMILES
166 nM	> 10000 nM	0.226 µM	3.13e-05 s⁻¹	139 M⁻¹ s⁻¹							CC#CC(=O)N1CC(c2nc(C)c(-c3cc4c(c(C)n3)OCc3c(N5CCOCC5)ccnc3N4)c(C)n2)C1 [Compound 278]
295 nM	> 10000 nM	0.0265 µM	3.61e-05 s⁻¹	1360 M⁻¹ s⁻¹							C=CC(=O)N1CC(N2CC(c3cc4c(c(C#N)n3)OCc3c(N5CCOCC5)ccnc3N4)C2)C1 [Compound 290]
77.6 nM	5370 nM	0.0471 µM	2.02e-05 s⁻¹	427 M⁻¹ s⁻¹							CC#CC(=O)N1CCC(N2CC(c3cc4c(c(C)n3)OCc3c(N5CCOCC5)ccnc3N4)C2)CC1 [Compound 313]
60.3 nM	> 10000 nM				1060 M⁻¹ s⁻¹						C=CC(=O)N1CC(N2CC(c3cc4c(c(C5CC5)n3)OCc3c(N5CCOCC5)ccnc3N4)C2)C1 [Compound 317]
324 nM	> 10000 nM	0.0441 µM	6.19e-05 s⁻¹	1400 M⁻¹ s⁻¹							CC#CC(=O)N1CC(N2CC(c3cc4c(c(C5CC5)n3)OCc3c(N5CCOCC5)ccnc3N4)C2)C1 [Compound 318]
< 9.77 nM	4170 nM				1280 M⁻¹ s⁻¹						CC#CC(=O)N1CCC(N2CCC(c3cc4c(c(C)n3)OCc3c(N5CCOCC5)ccnc3N4)CC2)CC1 [Compound 325]
178 nM	6760 nM	0.11 µM	2.12e-05 s⁻¹	193 M⁻¹ s⁻¹							CC#CC(=O)N1CC(n2cc(-c3cc(C)c4c(c3)Nc3nccc(N5CCOCC5)c3CO4)cn2)C1 [Compound 333]
55 nM	3630 nM	0.0383 µM	1.86e-05 s⁻¹	486 M⁻¹ s⁻¹							CC#CC(=O)N1CCC(N2CC(c3cc4c(c(C5CC5)n3)OCc3c(N5CCOCC5)ccnc3N4)C2)CC1 [Compound 335]
